“And” between values parts separate entries of the source, which are not always exact repeats. Equal values may be shown once. Read-outs that look alike come from different tables or passages of the source.
What was measured:
MRGPRX4 + RAMP1 = target: T1, MRGPRX4 + RAMP1 (Homo sapiens, UniProt Q96LA9); assay: IP1 accumulation, MRGPRX4 coexpressed with RAMP1; type: cell-based; design: key to IP1 Basal / response to agonist, X4:ramp1.I:1 / response to agonist, X4:ramp1.I:2 / response to agonist, X4:ramp1.I:0.25 / response to agonist, X4:ramp1.I:0.5: % IP1; unstimulated mock = 0%, fully stimulated MRGPRX4 = 100%; potency: unit not given here; conditions: for IP1 accumulation (normalized): MRGPRX4+RAMP1 1pg 1:1, Supplementary Figure 5d, 5g
T1 construct: expressed in transfected cells; host or cells: HEK293T
T1 sequence (Q96LA9 whole entry): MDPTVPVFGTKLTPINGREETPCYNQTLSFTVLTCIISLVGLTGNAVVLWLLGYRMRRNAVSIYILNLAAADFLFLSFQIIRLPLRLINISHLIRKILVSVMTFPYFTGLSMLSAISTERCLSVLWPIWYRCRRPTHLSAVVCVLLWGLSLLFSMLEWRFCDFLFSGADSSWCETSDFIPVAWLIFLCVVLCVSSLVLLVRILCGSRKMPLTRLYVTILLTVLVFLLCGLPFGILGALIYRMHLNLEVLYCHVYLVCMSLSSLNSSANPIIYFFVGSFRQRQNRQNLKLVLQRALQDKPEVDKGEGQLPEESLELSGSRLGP
Experimental: (§1) HEK293T cells were transfected with 1 pg/cell of MRGPRX4 DNA, and the amount of DNA was kept constant at 2 pg/cell with pcDNA3.1(+) empty vector, unless otherwise specified. Twenty four hours after transfection, IP1 assay was performed as previously described ([51]). When applicable, cells were treated with 1 μM YM254890 (YM) or different concentrations of U73122 for 1 h prior to addition of agonist or buffer. After incubation for 2 h, HTRF reagents and IP1 calibration standards were added and incubated for 2 h in the dark at room temperature. Time-resolved fluorescence signals were read on the BioTek Synergy NEO-TRF Hybrid multi-mode reader (BioTek Instruments). All data were carried out in three independent experiments with three technical replicate each.
For a homogenous transfection of MRGPRX4, a master mix of MRGPRX4 DNA was made prior to addition of the RAMP DNA. […]
(§2) Data reduction, standard calibration, and transformation of HTRF data were performed as previously described ([51]). Normalized IP1 values were calculated relative to the unstimulated mock-transfected cells (set to 0%) and fully stimulated MRGPRX4 (alone if applicable) (set to 100%).

MRGPRX4 + RAMP2 = target: T2, MRGPRX4 + RAMP2 (Homo sapiens, UniProt Q96LA9); assay: IP1 accumulation, MRGPRX4 coexpressed with RAMP2; type: cell-based; conditions: 2 h, Supplementary Figure 5e, read-out: IP1 accumulation (normalized); for activation at 100 µM: log [nateglinide] (M) -4
T2 construct: expressed in transfected cells; host or cells: HEK293T
T2 sequence (Q96LA9 whole entry): as above
Experimental: as §1
For RAMP DNA titration assay, HEK293T cells were cotransfected with a constant amount of 1 pg/cell of FLAG-MRGPRX4-GFP10-1D4 to which a serial dilution of 1, 0.75, 0.5, 0.25, or 0 pg/cell of each HA-RAMP-OLLAS was added. For a homogenous transfection of MRGPRX4, a master mix of MRGPRX4 DNA was made prior to addition of the RAMP DNA. […]
as §2

Compound: CC(C)[C@H]1CC[C@H](C(=O)N[C@H](Cc2ccccc2)C(=O)O)CC1 [Nateglinide]
- potency (MRGPRX4 + RAMP1; Figure 4a top, DNA ratio MRGPRX4:RAMP1 1:0.5, individual replicates): 5.042
- EC50 (MRGPRX4 + RAMP1; Figure 4a top, DNA ratio MRGPRX4:RAMP1 1:0.5, individual replicates, read-out: potency (converted)): 10.5 µM
- EC50 (MRGPRX4 + RAMP1; Figure 4a top, DNA ratio MRGPRX4:RAMP1 1:0.75, individual replicates, read-out: potency (converted)): 10.7 µM and 11.9 µM and 6.64 µM
- EC50 (MRGPRX4 + RAMP1; Figure 4a top, DNA ratio MRGPRX4:RAMP1 1:1, individual replicates, read-out: potency (converted)): 9.29 µM and 9.23 µM
- response to agonist, X4:ramp1.I:0.25 (MRGPRX4 + RAMP1; Figure 4c-f, agonist 100µM, X4:ramp1 1:0.25, MRGPRX4 = 100): 94.0571 and 91.2695
- response to agonist, X4:ramp1.I:0.5 (MRGPRX4 + RAMP1; Figure 4c-f, agonist 100µM, X4:ramp1 1:0.5, MRGPRX4 = 100): 83.4975 and 100.084
- response to agonist, X4:ramp1.I:1 (MRGPRX4 + RAMP1; Figure 4c-f, agonist 100µM, X4:ramp1 1:1, MRGPRX4 = 100): 101.298 and 92.1048
- response to agonist, X4:ramp1.I:2 (MRGPRX4 + RAMP1; Figure 4c-f, agonist 100µM, X4:ramp1 1:2, MRGPRX4 = 100): 90.9768 and 105.34
- IP1 Basal (MRGPRX4 + RAMP1; MRGPRX4 + RAMP1 0.25 pg (Fig. S3), normalized per agonist): 19.44
- EC50 (MRGPRX4 + RAMP1; MRGPRX4 + RAMP1 0.25 pg (Fig. S3), normalized per agonist, read-out: IP1 EC50): 11.5 µM
- Emax (MRGPRX4 + RAMP1; MRGPRX4 + RAMP1 0.25 pg (Fig. S3), normalized per agonist, read-out: IP1 Emax): 112%
- Emax (MRGPRX4 + RAMP1; MRGPRX4 + RAMP1 0.25 pg (Fig. S3), normalized per agonist, read-out: IP1 span): 92.4%
- IP1 Basal (MRGPRX4 + RAMP1; MRGPRX4 + RAMP1 0.5 pg (Fig. S3), normalized per agonist): 18.21
- EC50 (MRGPRX4 + RAMP1; MRGPRX4 + RAMP1 0.5 pg (Fig. S3), normalized per agonist, read-out: IP1 EC50): 9.56 µM
- Emax (MRGPRX4 + RAMP1; MRGPRX4 + RAMP1 0.5 pg (Fig. S3), normalized per agonist, read-out: IP1 Emax): 115%
- Emax (MRGPRX4 + RAMP1; MRGPRX4 + RAMP1 0.5 pg (Fig. S3), normalized per agonist, read-out: IP1 span): 96.6%
- IP1 Basal (MRGPRX4 + RAMP1; MRGPRX4 + RAMP1 1 pg (Fig. S3), normalized per agonist): 16.52
- EC50 (MRGPRX4 + RAMP1; MRGPRX4 + RAMP1 1 pg (Fig. S3), normalized per agonist, read-out: IP1 EC50): 9.45 µM
- Emax (MRGPRX4 + RAMP1; MRGPRX4 + RAMP1 1 pg (Fig. S3), normalized per agonist, read-out: IP1 Emax): 114%
- Emax (MRGPRX4 + RAMP1; MRGPRX4 + RAMP1 1 pg (Fig. S3), normalized per agonist, read-out: IP1 span): 97.4%
- IP1 Basal (MRGPRX4 + RAMP1; MRGPRX4 + RAMP1 2 pg (Fig. S3), normalized per agonist): 11.98
- EC50 (MRGPRX4 + RAMP1; MRGPRX4 + RAMP1 2 pg (Fig. S3), normalized per agonist, read-out: IP1 EC50): 9.37 µM
- Emax (MRGPRX4 + RAMP1; MRGPRX4 + RAMP1 2 pg (Fig. S3), normalized per agonist, read-out: IP1 Emax): 114%
- Emax (MRGPRX4 + RAMP1; MRGPRX4 + RAMP1 2 pg (Fig. S3), normalized per agonist, read-out: IP1 span): 102%
- IP1 Basal (MRGPRX4 + RAMP1; Tet-On MRGPRX4:RAMP1 Ratio 1:0.5 (Fig. S5D)): 7.772
- EC50 (MRGPRX4 + RAMP1; Tet-On MRGPRX4:RAMP1 Ratio 1:0.5 (Fig. S5D), read-out: IP1 EC50): 8.42 µM
- Emax (MRGPRX4 + RAMP1; Tet-On MRGPRX4:RAMP1 Ratio 1:0.5 (Fig. S5D), read-out: IP1 Emax): 111%
- Emax (MRGPRX4 + RAMP1; Tet-On MRGPRX4:RAMP1 Ratio 1:0.5 (Fig. S5D), read-out: IP1 span): 104%
- IP1 Basal (MRGPRX4 + RAMP1; Tet-On MRGPRX4:RAMP1 Ratio 1:0.75 (Fig. S5D)): 6.875
- EC50 (MRGPRX4 + RAMP1; Tet-On MRGPRX4:RAMP1 Ratio 1:0.75 (Fig. S5D), read-out: IP1 EC50): 5.95 µM
- Emax (MRGPRX4 + RAMP1; Tet-On MRGPRX4:RAMP1 Ratio 1:0.75 (Fig. S5D), read-out: IP1 Emax): 90%
- Emax (MRGPRX4 + RAMP1; Tet-On MRGPRX4:RAMP1 Ratio 1:0.75 (Fig. S5D), read-out: IP1 span): 83.1%
- IP1 Basal (MRGPRX4 + RAMP1; Tet-On MRGPRX4:RAMP1 Ratio 1:1 (Fig. S5D)): 7.220
- EC50 (MRGPRX4 + RAMP1; Tet-On MRGPRX4:RAMP1 Ratio 1:1 (Fig. S5D), read-out: IP1 EC50): 6.43 µM
- Emax (MRGPRX4 + RAMP1; Tet-On MRGPRX4:RAMP1 Ratio 1:1 (Fig. S5D), read-out: IP1 Emax): 89.6%
- Emax (MRGPRX4 + RAMP1; Tet-On MRGPRX4:RAMP1 Ratio 1:1 (Fig. S5D), read-out: IP1 span): 82.3%
- IP1 accumulation (normalized) (MRGPRX4 + RAMP1; log [nateglinide] (M) -4): 91.5442 and 89.3648 and 84.5333 and 68.7205
- IP1 accumulation (normalized) (MRGPRX4 + RAMP1; log [nateglinide] (M) -4.69897): 71.6977 and 68.3681 and 72.5875
- IP1 accumulation (normalized) (MRGPRX4 + RAMP1; log [nateglinide] (M) -5.39794): 40.9098 and 36.9736 and 38.5575
- IP1 accumulation (normalized) (MRGPRX4 + RAMP1; log [nateglinide] (M) -6.09691): 15.3098 and 13.9439 and 10.1316
- IP1 accumulation (normalized) (MRGPRX4 + RAMP1; log [nateglinide] (M) -7.49485): 9.7787 and 6.02 and 5.114
- activation at 100 µM (MRGPRX4 + RAMP2; MRGPRX4+RAMP2 0.75pg 1:0.75): 67.4%
- activation at 100 µM (MRGPRX4 + RAMP2; MRGPRX4+RAMP2 1pg 1:1, 5g): 56.4%
- activation at 20 µM (MRGPRX4 + RAMP2; log [nateglinide] (M) -4.69897, MRGPRX4+RAMP2 0.5pg 1:0.5): 67.3%
